From patent US20160304556A1, “[…] ACTIVE COMPOUNDS AND THEIR METHODS OF USE” (AGIOS PHARMACEUTICALS, INC, priority 2012, published 2016) come the findings set out here.

For test [1], the target named is IDH1 R132C (Homo sapiens, UniProt O75874, R132C). The experiment in a line: In vitro NADPH depletion assay for IDH1m R132C inhibitors. In kind it is biochemical. Conditions: enzyme, diaphorase/resazurin readout, read-out: IDH R132C IC50. As to the method:
A test compound is prepared as 10 mM stock in DMSO and diluted to 50× final concentration in DMSO, for a 50 μl reaction mixture. IDH enzyme activity converting alpha-ketoglutarate to 2-hydroxyglutaric acid is measured using a NADPH depletion assay. In the assay the remaining cofactor is measured at the end of the reaction with the addition of a catalytic excess of diaphorase and resazurin, to generate a fluorescent signal in proportion to the amount of NADPH remaining. IDH1-R132 homodimer enzyme is diluted to […] in 40 μl of Assay Buffer(150 mM NaCl, 20 mM Tris-Cl pH 7.5, 10 mM MgCl2, 0.05% BSA, 2 mM b-mercaptoethanol); 1 μl of test compound dilution in DMSO is added and the mixture is incubated for 60 minutes at room temperature. The reaction is started with the addition of 10 μl of Substrate Mix ([…], 5 mM alpha-ketoglutarate, in Assay Buffer) and the mixture is incubated for 90 minutes at room temperature. The reaction is terminated with the addition of 25 μl of Detection Buffer (36 μg/ml diaphorase, […], in 1× Assay Buffer), and is incubated for 1 minute before reading on a SpectraMax platereader at Ex544/Em590.
Compounds are assayed for their activity against IDH1 R132C following the same assay as above with the following modifications: Assay Buffer is (50 mM potassium phosphate, pH 6.5; 40 mM sodium carbonate, 5 mM MgCl2, 10% glycerol, 2 mM b-mercaptoethanol, and 0.03% BSA). The concentration of NADPH and alpha-ketoglutarate in the Substrate Buffer is 20 μM and 1 mM, respectively.
Representative compounds of formula I set forth in Table 1 were tested in this assay and the results are set forth below in Table 3.

Test [2] deals with IDH1 R132H (Homo sapiens, UniProt O75874, R132H). Briefly: In vitro NADPH depletion assay for IDH1m R132H inhibitors. Type of test: biochemical. Conditions: enzyme, diaphorase/resazurin readout, read-out: IDH R132H IC50. A digest of the protocol: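 IDH1-R132H homodimer […] was preincubated with compound for 60 min at room temperature in 20 mM Tris-Cl pH 7.5, 150 mM NaCl, 10 mM MgCl2, 0.05% BSA, 2 mM b-mercaptoethanol. Substrate mix (NADPH, 5 mM alpha-ketoglutarate) then reacted for 90 min. Remaining NADPH was read by diaphorase/resazurin fluorescence at Ex544/Em590.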
Chain of IDH1 R132H (O75874 whole entry R132H): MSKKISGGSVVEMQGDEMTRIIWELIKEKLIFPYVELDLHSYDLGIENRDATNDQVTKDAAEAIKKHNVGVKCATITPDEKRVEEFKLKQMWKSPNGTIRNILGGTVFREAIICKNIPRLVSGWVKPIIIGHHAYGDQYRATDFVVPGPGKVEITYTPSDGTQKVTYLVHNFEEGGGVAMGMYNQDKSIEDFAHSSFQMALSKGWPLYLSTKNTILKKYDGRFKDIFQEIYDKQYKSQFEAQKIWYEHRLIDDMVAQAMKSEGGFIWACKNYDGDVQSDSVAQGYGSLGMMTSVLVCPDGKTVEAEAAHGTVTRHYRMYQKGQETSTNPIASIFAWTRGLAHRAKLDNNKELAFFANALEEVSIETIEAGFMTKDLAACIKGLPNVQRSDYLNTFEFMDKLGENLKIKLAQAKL
For orientation: The colour change of resazurin is a common sign of viable cells or microbes.

The test system of test [3] is HT1080 cells. The experiment in a line: Cellular assay, inhibition of 2-HG production (LC-MS) in HT1080 cells. Particulars: Homo sapiens, HT-1080, 48 hours, LC-MS of media. Type of test: cell-based. In a few lines:
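HT1080 cells (5000/well) were incubated 48 hours with compound, 0.2% DMSO final. Medium 2-HG was quantified by LC-MS, and IC50 was taken as the concentration giving 50% reduction versus DMSO control. Viability was read by CellTiter-Glo luminescence at 72 hours.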

Chain of IDH1 R132C (O75874 whole entry R132C): as the sequence (O75874 whole entry R132H) above, with H132C counted along it

In the case of `COC(=O)N1CCN(C(C)=O)C[C@H]1C(=O)N(c1cccc(F)c1)[C@H](C(=O)NC1CC(F)(F)C1)c1ccccc1Cl` [Compound 68, (S)-Methyl 4-acetyl-2-(((S)-1-(2-chlorophenyl)-2-(3,3-difluorocyclobutylamino)-2-oxoethyl) (3-fluorophenyl)carbamoyl)piperazine-1-carboxylate], the IC50 (usually the point on the concentration scale where inhibition reaches its midpoint) in test [1] was ≤ 100 nM; in test [2], ≤ 100 nM; in test [3], 100 to 500 nM.

In the case of `COC(=O)NCC(=O)N(c1cccc(F)c1)[C@H](C(=O)N[C@H]1CCCCC1(F)F)c1ccccc1Cl` [Compound 82], the IC50 is ≤ 100 nM in test [1], ≤ 100 nM in test [2] and 100 to 500 nM in test [3].

For `COC(=O)NCC(=O)N(c1cccc(F)c1)[C@H](C(=O)N[C@H]1CCC(F)(F)C1)c1ccccc1Cl` [Compound 97], the results for the IC50 in test [1], in test [2] and in test [3] were 100 to 500 nM, 100 to 500 nM and 500 to 1000 nM, respectively.

Take `C[C@H]1CC[C@@H](C(=O)N(c2cccc(F)c2)[C@@H](C(=O)NC2CC(F)(F)C2)c2ccccc2Cl)N1c1ncccn1` [Compound 112, (2S,5S)—N—((R)-1-(2-chlorophenyl)-2-(3,3-difluorocyclobutylamino)-2-oxoethyl)-N-(3-fluorophenyl)-5-methyl-1-(pyrimidin-2-yl)pyrrolidine-2-carboxamide]: the IC50 in test [1] was ≤ 100 nM; in test [2], 100 to 500 nM; in test [3], 100 to 500 nM.

As for `COC(=O)N1C[C@@H](F)C[C@H]1C(=O)N(c1cccc(F)c1)[C@H](C(=O)NC1CC(F)(F)C1)c1ccccc1Cl` [Compound 70], the IC50 in test [1] was ≤ 100 nM; in test [2], ≤ 100 nM; in test [3], 100 to 500 nM.

`COC(=O)N[C@@H](CO)C(=O)N(c1cccc(F)c1)[C@H](C(=O)NC1CCCCC1)c1ccccc1Cl` [Compound 84]: the IC50 in test [1] was ≤ 100 nM; in test [2], ≤ 100 nM; in test [3], 100 to 500 nM.

On to `COC(=O)N[C@@H](CO)C(=O)N(c1cccc(F)c1)C(C(=O)NC1CCC(F)(F)CC1)c1ccccc1Cl` (stereo partly drawn) [Compound 101], for which the IC50 in test [1] was 100 to 500 nM; in test [2], 100 to 500 nM; in test [3] it was 1000 to 2000 nM.

In the case of `O=C(NC1CC(F)(F)C1)[C@H](c1ccccc1Cl)N(C(=O)[C@@H]1CCN1c1ncccn1)c1cccc(F)c1` (stereo in doubt) [Compound 102], the results for the IC50 in test [1], in test [2] and in test [3] were ≤ 100 nM, 100 to 500 nM and 100 to 500 nM, respectively.

Consider `COC(=O)N1[C@@H](C(=O)N(c2cccc(F)c2)[C@H](C(=O)NC2CC(F)(F)C2)c2ccccc2Cl)CCC1(C)C` (single isomer, unassigned) [Compound 114], for which the IC50 in test [1] was ≤ 100 nM; in test [2], 100 to 500 nM; in test [3] it was 100 to 500 nM.

Take `O=C(NC1CC(F)(F)C1)[C@@H](c1ccccc1Cl)N(C(=O)[C@@H]1CCN1c1ccccn1)c1cccc(F)c1` (stereo in doubt) [Compound 105]: the figures for the IC50 in test [1], in test [2] and in test [3] were ≤ 100 nM, 100 to 500 nM and 100 to 500 nM, respectively.

With `COC(=O)NCC(=O)N(c1cccc(F)c1)[C@H](C(=O)N[C@@H]1CCC(F)(F)C1)c1ccccc1Cl` [Compound 98], the concentration for half-maximal inhibition (IC50) lay within 100 to 500 nM in test [1], 100 to 500 nM in test [2] and 1000 to 2000 nM in test [3].

With `CC(C)OC(=O)NCC(=O)N(c1cccc(F)c1)C(C(=O)NC1CC(F)(F)C1)c1ccccc1Cl` (stereo not drawn) [Compound 74], the results for the IC50 in test [1], in test [2] and in test [3] were 100 to 500 nM, 100 to 500 nM and 1000 to 2000 nM, respectively.

For the compound `Cc1nc(Cl)c(Cl)n1CC(=O)N(c1cccc(F)c1)C(C(=O)NC1CC(F)(F)C1)c1ccccc1Cl` (stereo not drawn) [Compound 87], the IC50 in test [1] was ≤ 100 nM; in test [2], ≤ 100 nM; in test [3], 100 to 500 nM.

With `COC(=O)N1C[C@H](OCCO)C[C@H]1C(=O)N(c1cccc(F)c1)[C@H](C(=O)NC1CC(F)(F)C1)c1ccccc1Cl` [Compound 90], the values for the IC50 in test [1], in test [2] and in test [3] were ≤ 100 nM, ≤ 100 nM and 100 to 500 nM, respectively.

On to `O=C(NC1CCC(F)(F)CC1)C(c1ccccc1Cl)N(C(=O)CNc1ncccc1F)c1cccc(F)c1` (stereo not drawn) [Compound 48], for which the figures for the IC50 in test [1], in test [2] and in test [3] were ≤ 100 nM, ≤ 100 nM and 100 to 500 nM, respectively.

Consider `COC(=O)N1CC[C@H](O)[C@H]1C(=O)N(c1cccc(F)c1)[C@H](C(=O)NC1CC(F)(F)C1)c1ccccc1Cl` [Compound 91], for which the IC50 is 100 to 500 nM in test [1], ≤ 100 nM in test [2] and 100 to 500 nM in test [3].

`O=C(NC1CC(F)(F)C1)[C@H](c1ccccc1Cl)N(C(=O)[C@@H]1CCCN1c1ncccn1)c1cccc(F)c1` [Compound 69, (2S)—N—((S)-(3,3-difluorocyclobutylcarbamoyl)(2-chlorophenyl)methyl)-N-(3-fluorophenyl)-1-(pyrimidin-2-yl)pyrrolidine-2-carboxamide]: the IC50 in test [1], in test [2] and in test [3] was ≤ 100 nM throughout.

For the compound `O=C(NC1CC(F)(F)C1)C(c1ccccc1Cl)N(C(=O)Cc1cccnc1)c1cccc(F)c1` (stereo not drawn) [Compound 86], the results for the IC50 in test [1], in test [2] and in test [3] were ≤ 100 nM, ≤ 100 nM and 100 to 500 nM, respectively.

With `COC(=O)N1CC[C@H]1C(=O)N(c1cccc(F)c1)[C@H](C(=O)NC1CC(F)(F)C1)c1ccccc1Cl` [Compound 106], the IC50 in test [1] is 100 to 500 nM; in test [2], ≤ 100 nM; in test [3] it was 100 to 500 nM.

On to `C[C@H]1CC[C@@H](C(=O)N(c2cccc(F)c2)[C@H](C(=O)NC2CCC(F)(F)CC2)c2ccccc2Cl)N1c1ncccn1` [Compound 111, (2S,5S)—N—((S)-1-(2-chlorophenyl)-2-(4,4-difluorocyclohexylamino)-2-oxoethyl)-N-(3-fluorophenyl)-5-methyl-1-(pyrimidin-2-yl)pyrrolidine-2-carboxamide], for which the IC50 in test [1] is ≤ 100 nM; in test [2], ≤ 100 nM; in test [3], 100 to 500 nM.
